The values that follow come from US9198420B2, “Rodenticidal norbormide analogues” (priority 2012, dated 2015).

One assay has as its system rat caudal artery. The assay can be described thus: Rat caudal artery ring contractile force (vasoconstrictory activity). Also on record: species or system rat (male Wistar). A digest of the protocol: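 Endothelium-denuded caudal artery rings from male Wistar rats were held at 2 g resting tension in Tyrode solution (37° C, pH 7.35, 95% O2/CO2) and isometric force was recorded. Compounds were tested at 50 μM, with contraction expressed as percent of the 90 mM KCl response.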

Assay [1] relates to Sprague Dawley rats. The assay can be described thus: In vivo lethality, oral gavage. Also on record: species or system rat (Sprague Dawley). Particulars: rat. A digest of the protocol:
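Sprague Dawley rats (150-200 g) received compound dissolved in 0.2 M HCl (5% DMSO overall) at the desired dose, by oral gavage or tail-vein i.v. injection. Animals were watched for early toxicity signs every minute (i.v.) or every 15 min (oral).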

Assay [2] deals with Sprague Dawley rats. Kind of assay: Palatability (choice) trial, peanut butter bait. Particulars: choice of EPA diet (20 g) and bait with 1% w/w toxicant (20 g), 2 days, n = 2; Table 15. The assay is classed as in vivo, rat (Sprague Dawley).
For assay [3], the system named is Sprague Dawley rats. The assay can be described thus: Palatability (no-choice) trial, peanut butter bait. The assay is classed as in vivo, rat (Sprague Dawley). Particulars: 2% w/w toxicant in peanut butter bait, n = 6, Table 12.
The subject of assay [4] is Sprague Dawley rats. The assay can be described thus: Palatability (no-choice) trial, peanut butter bait. Particulars: 1% w/w toxicant in peanut butter bait, n = 6, 3 male and 3 female rats, Table 12. The assay is classed as in vivo, rat (Sprague Dawley). From the text: In the palatability trials, Sprague Dawley rats (ca. 250 g) were presented with 1% w/w compound (n=6) or 0.5% w/w compound (n=5) in a peanut butter bait, following 3 days ‘pre-baiting’ with a peanut butter formulation free of toxicant.

Marks after values point to notes of the source that are not given here.

On to `CCCCCCCCCCCC(=O)NCCN1C(=O)C2C3C=C(C(O)(c4ccccc4)c4ccccn4)C(C3=C(c3ccccc3)c3ccccn3)C2C1=O` (stereo not drawn) [Compound 339, N-2′-Dodecanamidoethyl-5-(α-hydroxy-α-2-pyridylbenzyl)-7-(α-2-pyridylbenzylidene)-5-norbornene-2,3-dicarboximide], for which the “Vasoconstriction: maximum contractile effect as a % of 90 mM KCl contraction” value came out at 0% in the assay with rat caudal artery (Table 2, compound at 50 μM) and 0% with rat caudal artery (Table 4, pre-cleavage, n = 3). For the same compound, the “Time to Death (min)” value in the assay with Sprague Dawley rats [1] (20 mg/Kg, mean time) is listed as 300^e min. For the same compound, the “Onset of Symptoms” value with Sprague Dawley rats [1] (20 mg/Kg, mean time, visual signs of distress consistent with NRB-like symptoms) is given as 200 min. Besides, the “In vivo lethality (oral)” value with Sprague Dawley rats [1] (40 mg/Kg, n = 2) is given as “yes^h”. Besides, the No of deaths with Sprague Dawley rats [2] was 3/12; in the assay with Sprague Dawley rats [3], 5/6; with Sprague Dawley rats [4], 3/6.
